The values that follow come from patent US10537566B2, “Combinations comprising siponimod and laquinimod for the treatment of multiple sclerosis” (Novartis AG, priority 2014, dated 2020).

For data set [1], the system named is experimental autoimmune encephalomyelitis (EAE). As to the kind of experiment: MOG/CFA/Pertussis toxin-induced EAE, treatment initiated during ongoing CNS damage. The conditions noted are these: 0.3 mg/kg siponimod, 10 mg/kg laquinimod or both, daily for 21 days after infiltration of immune cells into CNS; p<0.05. Type of data set: in vivo, C57Bl/6 mice. How it is done: (§1) Female C57Bl/6 mice were subcutaneously immunized with 200 μg recombinant MOG1-125 in CFA followed by one i.p. injection of 100 ng Pertussis toxin. Two days later an additional i.p. injection of 100 ng pertussis toxin was administered. Following infiltration of immune cells into the CNS to initiate tissue damage, the mice were randomized to either vehicle, 0.3 mg/kg siponimod, 10 mg/kg laquinimod or 0.3 mg/kg siponimod+10 mg/kg laquinimod and treated daily with said doses for 21 days.

Data set [2] shares this test system. Put plainly: MOG/CFA/Pertussis toxin-induced EAE, treatment initiated after severe CNS damage. Type of data set: in vivo, C57Bl/6 mice. The conditions noted are these: 0.3 mg/kg siponimod, 10 mg/kg laquinimod or both, daily for 30 days, from three days after first clinical symptoms; p<0.05. How it is done: Female C57Bl/6 mice were subcutaneously immunized with 200 μg recombinant MOG1-125 in CFA followed by one i.p. injection of 100 ng Pertussis toxin. Two days later an additional i.p. injection of 100 ng pertussis toxin was administered. Three days after the first clinical symptoms, the mice were randomized to either vehicle, 0.3 mg/kg siponimod, 10 mg/kg laquinimod or 0.3 mg/kg siponimod+10 mg/kg laquinimod and treated daily with said doses for 30 days. Treatment initiated after severe CNSneurological disease and tissue damage has occurred. More specifically after that a severe CNS damage, which can be characterized by hind limb paralysis, had already occurred.

Data set [3] relates to lymphocytes. Put plainly: Lymphocyte reduction in MOG/CFA/Pertussis toxin-immunized C57/Bl6 mice. Type of data set: in vivo, C57Bl/6 mice. The conditions noted are these: 0.3 mg/kg siponimod, 10 mg/kg laquinimod or both, daily for 29 days, from three days after first clinical symptoms; p<0.05. How it is done: as §1, with “Three days after” for “Following infiltration of immune cells into”, “first clinical symptoms,” for “CNS to initiate tissue damage,”, “29” for “21”, “days. The MOG/CFA/Pertussis toxin-induced experimental autoimmune encephalomyelitis model in C57/Bl6 mice is described in Quancard et al (Chem Biol. 19(9):1142-51, 2012).” for “days.”

The test system of data set [4] is RRMS. The conditions noted are these: phase III, oral 0.6 mg once daily over 24 months; cited from earlier work.
Data set [5] is described as follows: Level of siponimod in blood, brain and cerebrospinal fluid (CSF) in mice. Type of data set: in vivo. The conditions noted are these: female, mouse, C57Bl/6 mice, mean (SEM). The method, then: Female C57Bl/6 mice were treated daily with 3 mg/kg siponimod, p.o. for 8 days. 8 hours after the last administration, animals were sacrificed and the levels of siponimod were measured in blood, brain and CSF.
Shown are mean values of 3-5 animals and standard error of the mean (in brackets).

The subject of data set [6] is RRMS. The conditions noted are these: phase II, oral doses of 0.25 mg, 0.5 mg, 1.25 mg, 2 mg and 10 mg; cited from earlier work.

Where two headings read alike, the source gives them in different places.

For `CCN(C(=O)c1c(O)c2c(Cl)cccc2n(C)c1=O)c1ccccc1` [laquinimod, 5-chloro-N-ethyl-4-hydroxy-1-methyl-2-oxo-N-phenyl-1,2-dihydroquinoline-3-carboxamide], in data set [1], the “daily disease severity / neurological paralysis / disease burden (FIG. 4)” value is on record as “did not significantly improve daily disease severity”. The “disease burden (cumulative EAE score) (FIG. 2)” value in data set [2] was “did not significantly improve disease burden”. Moreover, the “effect on lymphocytes (FIG. 1)” value in data set [3] was “did not significantly reduce lymphocytes”. The “efficacy in treating RRMS” value in data set [4] was “showed efficacy”.

For the compound `CCc1cc(/C(C)=N/OCc2ccc(C3CCCCC3)c(C(F)(F)F)c2)ccc1CN1CC(C(=O)O)C1` [siponimod, 1-{4-[1-((E)-4-cyclohexyl-3-trifluoromethyl-benzyloxyimino)-ethyl]-2-ethyl-benzyl}-azetidine-3-carboxylic acid], the “daily disease severity / neurological paralysis / disease burden (FIG. 4)” value in data set [1] is reported as “transiently reduced neurological paralysis”. For the same compound, the concentration at 8 h in data set [5] (CSF, oral, EAE, 3 mg/kg qd, day 8, 8 h, read-out: conc siponimod (nM) (SEM) CSF) came to 17.7 nM; in data set [5] (CSF, po, 3 mg/kg qd p.o., day 8, 8 h after last administration, read-out: conc siponimod (nM) (SEM) CSF), 7.2 nM; in data set [5] (blood, oral, EAE, 3 mg/kg qd, day 8, 8 h, read-out: conc siponimod (nM) (SEM) Blood) it was 1600 nM; in data set [5] (blood, po, 3 mg/kg qd p.o., day 8, 8 h after last administration, read-out: conc siponimod (nM) (SEM) Blood) it was 973 nM; in data set [5] (brain, oral, EAE, 3 mg/kg qd, day 8, 8 h, read-out: conc siponimod (nM) (SEM) Brain), 9190 nM; in data set [5] (brain, po, 3 mg/kg qd p.o., day 8, 8 h after last administration, read-out: conc siponimod (nM) (SEM) Brain), 5550 nM. Besides, the “efficacy in treating RRMS” value in data set [6] is listed as “dose-dependent efficacy”. In data set [2], the “disease burden (cumulative EAE score) (FIG. 2)” value was “reduced disease burden”. For the same compound, the “effect on lymphocytes (FIG. 1)” value in data set [3] is on record as “reduced lymphocytes”.
